Where “and” joins values, the source holds several entries; their conditions need not be identical. Equal values may be shown once. Read-outs that look alike come from different tables or passages of the source.
Legend:
[1] = Plasma concentration of Compound 1.003 after single intranasal administration of nasal formulation Ex. A (LC-MS/MS); assay type: in vivo, Mouse; details: female athymic mice
Experimental: (§1) This study was conducted to investigate the potential for Compound 1.003 to penetrate into the brain following a single intranasal administration of a nasal formulation including the compound. Compound 1.003 was formulated at a dose strength of 2.3% according to Ex. A of Example 1.
(§2) A single group of female athymic mice each received a single intranasal administration of Compound 1.003. At intervals post dose the animals were sacrificed and samples of blood and brain were collected. The concentration of Compound 1.003 was determined in plasma and brain; and samples of brain were used for determination of the expression of phosphor-ERK (p-ERK).
(§3) The study was conducted using the following animals: • Species: Mouse; • Strain: NCr mu/mu athymic nude mice from Charles River; • Sex: Female; • Age: 7 weeks old at the time of dosing; • Body weight: 20.1 to 27.0 g; and • Number used: 12
(§4) Overview: A single group of 12 athymic female mice each received a single intranasal administration of Compound 1.003 (Ex. A nasal formulation of Example 1). Three animals were sacrificed at each a 4 times post dose and sample of plasma and brain collected at necropsy. The concentration of Compound 1.003 was determined in plasma and brain by liquid chromatography with tandem mass spectrometry (LC-MS/MS) and the expression of p-ERK was determined in brain samples.
(§5) Dosing: Each animal received a single administration (50 μL) of the nasal formulation Ex. A including Compound 1.003. The dose was administration intranasally to each animal.
(§6) (dry ice). The samples were send out for the LC-MS/MS analysis of plasma concentration of Compound 1.003. • Brain Collection: Brain (divide into 2 parts at the mid sagittal plane); Part 1: preservation—snap frozen, ship at −80° C. (dry ice) for the LC-MS/MS analysis of Compound 1.003; and Part 2: preservation—fixed in 10% neutral buffered formalin for at least 24 h. Samples were then transferred after 24 h into 1.5 mL Eppendorf tubes containing 70% EtOH and stored ambient until shipment for the expression of p-ERK.
(§7) Bioanalytical Methods: Bioanalysis of […] plasma and brain samples for Compound 1.003 was performed using the LC-MS/MS analysis. For this study, the analysis was conducted using existing fit for purpose bioanalytical methods. Plasma samples were analyzed undiluted against a plasma standard curve (10 standards between 0.5 to 5000 ng/mL). Prior to analysis for concentration of compound 1.003, the brain samples were weighed, mixed with 5 volumes of water and then homogenised. Homogenised samples were then diluted 2× into plasma and then analysed against the plasma standard curve ([…]). All results were then corrected for the dilution factor.

[2] = Brain concentration and brain:plasma ratio of Compound 1.003 after single intranasal administration of nasal formulation Ex. A (LC-MS/MS); assay type: in vivo, Mouse; details: female athymic mice, single intranasal 50 μL Ex. A; for Brain concentration, animal replicates: individual animals; for Brain concentration, Mean: mean of 3
Experimental: as §1, §2, §3, §4, §5, §6, §7

## Cn1c(Nc2ccc(I)cc2F)c(C(=O)NOCCO)c2cccnc21 [Compound 1.003, 2-((2-fluoro-4-iodophenyl)amino)-N-(2-hydroxyethoxy)-1-methyl-1H-pyrrolo[2,3-b]pyridine-3-carboxamide]
[1]; NCr mu/mu athymic nude, mouse, plasma, inhaled or intranasal, single intranasal 50 μL Ex. A, read-out: maximum plasma concentration (Cmax)
  Cmax: 996 ng/mL
[1]; single intranasal 50 μL Ex. A, 0.5 h post dose, individual animals
  Plasma concentration, animal replicates: 1000 ng/mL and 823 ng/mL
[1]; single intranasal 50 μL Ex. A, 1.0 h post dose, individual animals
  Plasma concentration, animal replicates: 82.4 ng/mL and 125 ng/mL
[1]; single intranasal 50 μL Ex. A, 4.0 h post dose, individual animals
  Plasma concentration, animal replicates: 52.4 ng/mL and 82.4 ng/mL
[1]; single intranasal 50 μL of nasal formulation Ex. A (2.3%), 0.25 h post dose, individual animals
  Plasma concentration, animal replicates: 1190 ng/mL and 1230 ng/mL and 568 ng/mL
[1]; female, NCr mu/mu athymic nude, mouse, plasma, other: intranasal, 50 μL, single intranasal 50 μL Ex. A, 0.5 h post dose, individual animals, read-out: Plasma concentration, animal replicates
  concentration at 0.5 h: 757 ng/mL
[1]; female, NCr mu/mu athymic nude, mouse, plasma, other: intranasal, 50 μL, single intranasal 50 μL Ex. A, 0.5 h post dose, mean of 3, read-out: Plasma concentration, Mean
  concentration at 0.5 h: 860 ng/mL
[1]; female, NCr mu/mu athymic nude, mouse, plasma, other: intranasal, 50 μL, single intranasal 50 μL Ex. A, 1.0 h post dose, individual animals, read-out: Plasma concentration, animal replicates
  concentration at 1 h: 130 ng/mL
[1]; female, NCr mu/mu athymic nude, mouse, plasma, other: intranasal, 50 μL, single intranasal 50 μL Ex. A, 1.0 h post dose, mean of 3, read-out: Plasma concentration, Mean
  concentration at 1 h: 112 ng/mL
[1]; female, NCr mu/mu athymic nude, mouse, plasma, other: intranasal, 50 μL, single intranasal 50 μL Ex. A, 4.0 h post dose, individual animals, read-out: Plasma concentration, animal replicates
  concentration at 4 h: 45.5 ng/mL
[1]; female, NCr mu/mu athymic nude, mouse, plasma, other: intranasal, 50 μL, single intranasal 50 μL Ex. A, 4.0 h post dose, mean of 3, read-out: Plasma concentration, Mean
  concentration at 4 h: 60.1 ng/mL
[1]; female, NCr mu/mu athymic nude, mouse, plasma, other: intranasal, 50 μL, single intranasal 50 μL of nasal formulation Ex. A (2.3%), 0.25 h post dose, mean of 3
  concentration at 0.25 h: 996 ng/mL
[2]; 0.250 h post dose, animals 1-3
  Brain:plasma concentration ratio, individual animal: 0.30 and 0.49
[2]; 0.250 h post dose
  Brain concentration, animal replicates: 405 and 375 and 280
  Brain concentration, Mean: 353 ng/g
[2]; 0.500 h post dose, animals 4-6
  Brain:plasma concentration ratio, individual animal: 0.51 and 0.47
[2]; 0.500 h post dose
  Brain concentration, animal replicates: 297 and 513 and 383
  Brain concentration, Mean: 398 ng/g
[2]; 1.00 h post dose, animals 7-9
  Brain:plasma concentration ratio, individual animal: 1.45 and 2.49 and 1.15
[2]; 1.00 h post dose
  Brain concentration, animal replicates: 188 and 205 and 144
  Brain concentration, Mean: 179 ng/g
[2]; 4.00 h post dose
  Brain:plasma concentration ratio, Mean: 1.72
  Brain concentration, animal replicates: 166 and 46.5 and 51.9
  Brain concentration, Mean: 88.1 ng/g
[2]; 4.00 h post dose, animals 10-12
  Brain:plasma concentration ratio, individual animal: 3.65 and 0.89 and 0.63
[2]; female, NCr mu/mu athymic nude, mouse, brain, inhaled or intranasal, 50 μL, 0.250 h (15 min) post dose, read-out: Brain:plasma concentration ratio, Mean
  Kp at 0.25 h: 0.38
[2]; female, NCr mu/mu athymic nude, mouse, brain, inhaled or intranasal, 50 μL, 0.250 h post dose, animals 1-3, read-out: Brain:plasma concentration ratio, individual animal
  Kp at 0.25 h: 0.34
[2]; female, NCr mu/mu athymic nude, mouse, brain, inhaled or intranasal, 50 μL, 0.500 h post dose, animals 4-6, read-out: Brain:plasma concentration ratio, individual animal
  Kp at 0.5 h: 0.39
[2]; female, NCr mu/mu athymic nude, mouse, brain, inhaled or intranasal, 50 μL, 0.500 h post dose, read-out: Brain:plasma concentration ratio, Mean
  Kp at 0.5 h: 0.46
[2]; female, NCr mu/mu athymic nude, mouse, brain, inhaled or intranasal, 50 μL, 1.00 h post dose
  Kp at 1 h: 1.7
[2]; female, NCr mu/mu athymic nude, mouse, brain, inhaled or intranasal, 50 μL, 4.00 h post dose
  Kp at 4 h: 1.7

From patent US20220110862A1, “TREATMENT OF COGNITIVE DYSFUNCTION WITH PYRROLOPYRIDINE-ANILINE COMPOUNDS” (NFlection Therapeutics, Inc., priority 2020, published 2022)
